Where a name gives a salt, the structure may show the parent alone.
Biological target: Glycogen synthase kinase-3 beta (Homo sapiens, UniProt P49841)
Assay: GSK3beta kinase inhibitor potency, dose response, biochemical, luminescence, cell-free homogeneous, retest (AID 434954)

Chain of Glycogen synthase kinase-3 beta (P49841 whole entry): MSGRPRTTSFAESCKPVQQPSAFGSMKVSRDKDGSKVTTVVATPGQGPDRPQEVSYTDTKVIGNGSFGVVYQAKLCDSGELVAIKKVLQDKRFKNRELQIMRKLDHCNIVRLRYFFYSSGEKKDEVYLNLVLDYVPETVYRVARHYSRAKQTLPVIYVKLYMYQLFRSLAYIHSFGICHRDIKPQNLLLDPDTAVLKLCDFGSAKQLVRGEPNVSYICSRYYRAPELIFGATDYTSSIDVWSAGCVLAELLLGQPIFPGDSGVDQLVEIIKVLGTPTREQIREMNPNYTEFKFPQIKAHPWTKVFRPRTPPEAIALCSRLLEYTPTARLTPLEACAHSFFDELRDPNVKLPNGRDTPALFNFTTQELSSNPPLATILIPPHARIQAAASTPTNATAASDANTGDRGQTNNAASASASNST

COc1ccc(CN(CC(=O)NCCc2ccccc2)C(=O)CCC(=O)Nc2ccccn2)cc1 [N'-[(4-methoxyphenyl)methyl]-N'-[2-oxo-2-(2-phenylethylamino)ethyl]-N-pyridin-2-ylbutanediamide]
EC50: > 300 µM

O=C(COc1cccc2cccnc12)NN=Cc1ccc(O)cc1 [N'-[(4-oxo-1-cyclohexa-2,5-dienylidene)methyl]-2-(8-quinolinyloxy)acetohydrazide]
EC50: 9.3 µM

O=C(NN=Cc1cc(Br)ccc1O)c1ccccc1Cl [N'-[(E)-(3-bromo-6-oxocyclohexa-2,4-dien-1-ylidene)methyl]-2-chlorobenzohydrazide]
EC50: > 300 µM

CC(CC(=O)Nc1cc(C)ccn1)=NNC(=O)C(=O)NC(C)C [N'-[[4-[(4-methylpyridin-2-yl)amino]-4-oxidanylidene-butan-2-ylidene]amino]-N-propan-2-yl-ethanediamide]
EC50: > 300 µM

O=C(Cn1nnc(-c2ccccc2)n1)NN=Cc1ccc(-c2ccc(Cl)cc2)o1 [N'-{[5-(4-chlorophenyl)-2-furyl]methylene}-2-(5-phenyl-2H-tetrazol-2-yl)acetohydrazide]
EC50: > 300 µM

CC(=NNC(=O)c1ccc(C(=O)NN=C(C)c2ccco2)o1)c1ccco1 [N'~2~,N'~5~-bis[1-(2-furyl)ethylidene]-2,5-furandicarbohydrazide]
EC50: > 300 µM

c1ccc(Nc2ccnc(Nc3ccccc3)n2)cc1 [N*2*,N*4*-Diphenyl-pyrimidine-2,4-diamine]
EC50: 37.6 µM

c1ccc(Nc2nc(-c3ccccc3)nc3ccccc23)cc1 [N,2-diphenylquinazolin-4-amine]
EC50: > 300 µM

CCC(=O)Nc1ccc(Nc2nc(C)c([N+](=O)[O-])c(Nc3ccc(NC(=O)CC)cc3)n2)cc1 [N,N'-[(6-methyl-5-nitro-2,4-pyrimidinediyl)bis(imino-4,1-phenylene)]dipropanamide]
EC50: > 300 µM

O=C(Nc1ccccn1)C(=O)Nc1ccccn1 [N,N'-dipyridin-2-ylethanediamide]
EC50: > 300 µM

CCN(CC)C(=O)COc1cc(C)cc2oc(=O)cc(-c3ccccc3)c12 [N,N-diethyl-2-(7-methyl-2-oxo-4-phenylchromen-5-yl)oxyacetamide]
EC50: > 300 µM

CN(C)CCc1cc2c(c3c1ccc1ccccc13)OCO2 [N,N-dimethyl-2-(5-naphtho[2,1-g][1,3]benzodioxolyl)ethanamine;hydrochloride]
EC50: 25.9 µM

O=C(Nc1ccc2c(c1)OCO2)Nc1ccccn1 [N-1,3-benzodioxol-5-yl-N'-2-pyridinylurea]
EC50: > 300 µM

CN(C(=O)CSc1nnc(-c2c[nH]c3ccccc23)o1)C1CCS(=O)(=O)C1 (centres undefined) [N-(1,1-dioxothiolan-3-yl)-2-[[(2Z)-2-indol-3-ylidene-3H-1,3,4-oxadiazol-5-yl]sulfanyl]-N-methylacetamide]
EC50: > 300 µM

O=C(CN1C(=O)CCC1=O)Nc1ccc2c3c(cccc13)CC2 [N-(1,2-dihydroacenaphthylen-5-yl)-2-(2,5-dioxo-1-pyrrolidinyl)acetamide]
EC50: > 300 µM

CC(C)(C)C1CCc2onc(C(=O)Nc3ccc4c(c3)OCO4)c2C1 (centres undefined) [N-(1,3-benzodioxol-5-yl)-5-tert-butyl-4,5,6,7-tetrahydro-1,2-benzoxazole-3-carboxamide]
EC50: > 300 µM

c1cncc(-c2nc(NCc3ccc4c(c3)OCO4)c3ccccc3n2)c1 [N-(1,3-benzodioxol-5-ylmethyl)-2-(3-pyridinyl)-4-quinazolinamine]
EC50: > 300 µM

O=C(Nc1cccc2c1C(=O)NC2=O)c1ccccc1[N+](=O)[O-] [N-(1,3-dioxo-4-isoindolyl)-2-nitrobenzamide]
EC50: > 300 µM

CC(=O)Nc1cccc2c1C(=O)NC2=O [N-(1,3-dioxoisoindol-4-yl)acetamide]
EC50: 31.7 µM

Cc1c(NC(=O)C(C)n2cc([N+](=O)[O-])cn2)c(=O)n(-c2ccccc2)n1C (centres undefined) [N-(1,5-dimethyl-3-oxo-2-phenylpyrazol-4-yl)-2-(4-nitropyrazol-1-yl)propanamide]
EC50: > 300 µM

O=C(Cn1cc2c(n1)CCCCC2)NC1CCN(Cc2ccccc2)CC1 [N-(1-benzylpiperidin-4-yl)-2-(5,6,7,8-tetrahydro-4H-cyclohepta[c]pyrazol-2-yl)acetamide]
EC50: > 300 µM

CCCCn1nc(NC(=O)COC)c2cc3cc(OC)ccc3nc21 [N-(1-butyl-6-methoxy-3-pyrazolo[3,4-b]quinolinyl)-2-methoxyacetamide]
EC50: > 300 µM

CCCCn1nc(NC(=O)CC(C)C)c2cc3cc(OC)ccc3nc21 [N-(1-butyl-6-methoxy-3-pyrazolo[3,4-b]quinolinyl)-3-methylbutanamide]
EC50: > 300 µM

CCCCn1nc(NC(=O)CC)c2cc3cc(OC)ccc3nc21 [N-(1-butyl-6-methoxy-pyrazolo[3,4-b]quinolin-3-yl)propanamide]
EC50: 43.6 µM

CCn1nc(NC(=O)C2CCCO2)c2cc3cc(C)ccc3nc21 (centres undefined) [N-(1-ethyl-6-methyl-pyrazolo[3,4-b]quinolin-3-yl)oxolane-2-carboxamide]
EC50: > 300 µM

CCn1nc(NC(=O)CC(C)C)c2cc3ccc(C)cc3nc21 [N-(1-ethyl-7-methylpyrazolo[3,4-b]quinolin-3-yl)-3-methylbutanamide]
EC50: > 300 µM

COC(CNC(=O)CCc1c(C)nc2c(c(C)nn2-c2ccc(C)cc2)c1C)OC [N-(2,2-dimethoxyethyl)-3-[3,4,6-trimethyl-1-(4-methylphenyl)pyrazolo[3,4-b]pyridin-5-yl]propanamide]
EC50: > 300 µM

Cc1ccc(S(=O)(=O)NCC2COc3ccccc3O2)cc1 (centres undefined) [N-(2,3-Dihydro-benzo[1,4]dioxin-2-ylmethyl)-4-methyl-benzenesulfonamide]
EC50: > 300 µM

c1ccc(CCCCNCC2COc3ccccc3O2)cc1 (centres undefined) [N-(2,3-dihydro-1,4-benzodioxin-3-ylmethyl)-4-phenylbutan-1-amine]
EC50: > 300 µM

CC(=O)NCC1COc2ccccc2O1 (centres undefined) [N-(2,3-dihydro-1,4-benzodioxin-3-ylmethyl)ethanamide]
EC50: > 300 µM

O=C(CCc1ccccc1)Nc1ccc2c(c1)OCCO2 [N-(2,3-dihydro-1,4-benzodioxin-6-yl)-3-phenyl-propanamide]
EC50: > 300 µM

O=C(CCSCCc1ccccn1)Nc1cc(F)ccc1F [N-(2,5-difluorophenyl)-3-(2-pyridin-2-ylethylsulfanyl)propanamide]
EC50: > 300 µM

COc1ccc(OC)c(Nc2c3ccccc3nc3ccccc23)c1 [N-(2,5-dimethoxyphenyl)-9-acridinamine]
EC50: > 300 µM

O=C(Nc1ccccc1Cl)N1CCSc2ccccc21 [N-(2-chlorophenyl)-2,3-dihydro-4H-1,4-benzothiazine-4-carboxamide]
EC50: > 300 µM

CCn1c(SCC(=O)Nc2ccccc2Cl)nnc1C1CC1 [N-(2-chlorophenyl)-2-[(5-cyclopropyl-4-ethyl-1,2,4-triazol-3-yl)sulfanyl]ethanamide]
EC50: > 300 µM

CC1=C(C(=O)Nc2ccccc2F)C(c2ccsc2)C2C(=O)CC(C)(C)CC2=N1 (centres undefined) [N-(2-fluorophenyl)-2,7,7-trimethyl-5-oxo-4-(3-thiophenyl)-1,4,6,8-tetrahydroquinoline-3-carboxamide]
EC50: > 300 µM

O=C(Cn1c2ccccc2c(=O)c2ccccc21)Nc1ccccc1F [N-(2-fluorophenyl)-2-(9-oxoacridin-10-yl)acetamide]
EC50: > 300 µM

Fc1ccccc1Nc1nc(-c2ccncc2)nc2ccccc12 [N-(2-fluorophenyl)-2-pyridin-4-yl-quinazolin-4-amine]
EC50: > 300 µM

c1cncc(-c2nc(NCc3ccco3)c3ccccc3n2)c1 [N-(2-furanylmethyl)-2-(3-pyridinyl)-4-quinazolinamine]
EC50: > 300 µM

Source: BindingDB's records for doi:10.7270/Q2TX3CTT (Broad Institute, 2010)
